Test results published in PubChem BioAssay (NCI).
Values joined by “and” are separate entries in the source; they are usually repeats but may differ in a detail not shown here. Equal entries are not always repeated.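 Grown in 96-well plates, cells were treated for 48 hours with each compound at five concentrations. Insufficient inhibition: endpoint recorded as highest concentration tested. Here, GI50 denotes the concentration required for 50% inhibition of growth. TGI: concentration producing complete growth inhibition.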 *1 amine or outer side, *2 acyl side, *3 side chain or, on linkers, in order; H or OH if unused. Where a SMILES comes first, the peptide text is derived from it. Bridges are numbered along the chain shown (N, C = ends). [ ]: non-standard residue; d: D form. The star is where a group is joined. X19 = O=C([C@H](N[*:1])c1ccc(O[C@H]2O[C@@H](CO)[C@@H](O)[C@@H](O)[C@H]2O[C@@H]2O[C@H](CO)[C@H](O)[C@H](O)[C@@H]2O)cc1)[*:2]; X18 = NC(=O)[C@@H](O[*:3])[C@H](N[*:1])C(=O)[*:2]; X20 = O=C([C@H](N[*:1])c1ccc(O)c(Cl)c1)[*:2]; d(aThr) = C[C@@H](O)[C@@H](N)C(=O)O; dHpg = N[C@@H](C(=O)O)c1ccc(O)cc1; X17 = CC(C)C/C=C/C=C/C(=O)*; dOrn = NCCC[C@@H](N)C(=O)O

Columns and labels:
Assay in all cases: NCI tumour cell line growth inhibition, 48 h
[1] = system: DLD-1 colon
[2] = system: HOP-18 NSCLC
[3] = system: RXF-631 renal
[4] = system: XF 498 CNS
[5] = system: HS 578T breast
[6] = system: MDA-N

What does the source list for `CC1Cc2c(N)nc(N3CCOCC3)nc2NC1=O` (stereo not drawn)?
TGI [1]: > 100 µM; TGI [2]: > 100 µM

For `CC(C(=O)c1ccccc1)C1(O)C(=O)Nc2ccccc21` (stereo not drawn), which TGI [1] is on record?
Its TGI is over 100 µM.

What about the TGI [2] of the same compound?
Its TGI is over 100 µM.

And the TGI [3]?
Its TGI is over 100 µM.

What does the source list for `CCCC1C(=O)C(CC)Cc2c(OC)ccc(OC)c21` (stereo not drawn)?
TGI [1]: > 100 µM; TGI [3]: > 100 µM; TGI [4]: > 100 µM

`CCN(CC)C(=O)CNC(=O)OC(C)(C)C` was tested. Which TGI [1] did it give?
Its TGI is over 100 µM.

What does the source list for `COc1ccccc1N1CCN(C(=O)c2ccc(NS(=O)(=O)c3cccc4cccnc34)cc2)CC1`?
GI50 [5]: > 46.4 µM; TGI [5]: 99.4 µM

How did the GI50 [5] turn out when `CN(C)Cc1cccc(CN(C)C)[c]1[Sn]([Br])([c]1ccccc1)[c]1ccccc1` was run?
The GI50 was 19.8 µM.

And the TGI [5]?
Its TGI is 47 µM.

And the GI50 [6]?
Its GI50 is 16.6 µM.

And the TGI [6]?
The TGI was 38.8 µM.

What does the source list for `Cc1ccc(C(=O)CCC2C(=O)CC(C)(C)CC2=O)cc1`?
TGI [5]: > 100 µM; TGI [6]: > 100 µM

Which results are given for `O=C1CC2C(=O)C1C(C(=O)O)C2C(=O)O` (stereo not drawn)?
TGI [5]: > 100 µM; TGI [6]: > 100 µM

How did the GI50 [5] turn out when `CCCCNC(=O)Oc1ccc2c(=O)c3sc4c(=O)c5ccccc5c(=O)c4c3c(=O)c2c1` was run?
The GI50 was 0.279 µM.

What about the TGI [5] of the same compound?
The TGI was 0.86 µM.

How did the TGI [5] turn out when `CC(=O)Nc1ccc2oc(=O)c3ccccc3c2c1` was run?
The TGI was over 100 µM.

What about the TGI [6] of the same compound?
The TGI was over 100 µM.

With `NC(=O)c1cc(Cl)ccc1NC(=O)c1ccccc1-c1ccccc1` as the compound, how does the GI50 [5] read?
The GI50 was 1.07 µM.

And the TGI [5]?
The TGI was over 100 µM.

Which results are given for `CC1OC(O[C@H]2/C=C/C=C/C=C/C=C/C=C/C=C/C=C/[C@H](C)[C@@H](O)[C@@H](C)[C@H](C)OC(=O)C[C@H](O)C[C@H](O)CC[C@@H](O)[C@H](O)C[C@H](O)C[C@]3(O)C[C@H](O)[C@@H](C(=O)O)[C@H](C2)O3)C(O)C(N)C1O` (stereo partly drawn)?
TGI [5]: 27.7 µM; TGI [6]: 24.4 µM

Which results are given for `CC(C)c1cccc(C(C)C)c1N=C(N)C#N`?
TGI [1]: > 65.6 µM; TGI [2]: > 100 µM; TGI [3]: > 100 µM; TGI [4]: > 100 µM

With `COc1cc(C)[nH]c(=O)c1CN1CCc2c(Cl)cc([C@H](OC)C3COC3)c(Cl)c2C1=O` as the compound, how does the GI50 [5] read?
The GI50 was over 100 µM.

And the TGI [5]?
The TGI was over 100 µM.

For `COc1cccc(-c2nc(-c3ccc(NC(=O)c4ccccc4)cc3)[nH]c2-c2ccnc(Br)c2)c1`, which GI50 [5] is on record?
Its GI50 is 0.339 µM.

What about the TGI [5] of the same compound?
The TGI was 1.75 µM.

Which GI50 [5] does the source give for `O=C(Nc1ccc(Cl)cc1)c1cc2cc(F)ccc2cc1O` here?
The GI50 was 3.03 µM.

What about the TGI [5] of the same compound?
Its TGI is over 100 µM.

For `C=C1SC(=Nc2ccccc2Cl)N(C(=O)c2sc3ccccc3c2Cl)C1(C)C`, which GI50 [5] is on record?
The GI50 was 5.66 µM.

What about the TGI [5] of the same compound?
Its TGI is 57.8 µM.

Which results are given for `N#Cc1nn(C2OC(COC(=O)c3ccccc3)C(OC(=O)c3ccccc3)C2OC(=O)c2ccccc2)c2nc[nH]c(=O)c12` (stereo not drawn)?
TGI [5]: > 100 µM; TGI [6]: > 100 µM

With `CC(=O)O[C@H]1CCC2[C@@H]3CCC4Nc5c(cnn5-c5ccccc5)C[C@]4(C)C3CC[C@@]21C` (stereo partly drawn) as the compound, how does the TGI [1] read?
Its TGI is over 100 µM.

And the TGI [2]?
Its TGI is 86.5 µM.

What about the TGI [3] of the same compound?
Its TGI is 42.2 µM.

And the TGI [4]?
Its TGI is 18.8 µM.

Which results are given for `c1ccc2c(c1)nnn2CNc1ccc(N2CCOCC2)cc1`?
TGI [1]: > 100 µM; TGI [2]: > 100 µM; TGI [4]: > 100 µM

What does the source list for `O=C(O[C@H]1CN[C@H](C#Cc2cc3ncnc(Nc4ccc(OCc5cccc(F)c5)c(Cl)c4)c3s2)C1)N1CCOCC1`?
GI50 [5]: 7.23 µM; TGI [5]: > 25 µM

For `ClC1(c2ccccc2)c2ccc(Br)cc2-c2cc(Br)ccc21`, which TGI [5] is on record?
Its TGI is 50.3 µM.

Which TGI [1] does the source give for `O=C(N/C(=C\c1ccc([N+](=O)[O-])cc1)c1nc2ccc(Cl)cc2[nH]1)c1ccccc1` here?
Its TGI is 31.3 µM.

What about the TGI [4] of the same compound?
The TGI was 46.5 µM.

How did the GI50 [5] turn out when `COc1cc([C@@H]2c3cc4c(cc3[C@H](OC(C)=O)[C@H]3COC(=O)[C@H]23)OCO4)cc(OC)c1OC` was run?
The GI50 was 0.0312 µM.

And the TGI [5]?
Its TGI is over 100 µM.

`Cc1cccc2c1O/C(=C\c1ncc([N+](=O)[O-])n1C)C2=O` was tested. Which GI50 [5] did it give?
Its GI50 is 0.375 µM.

What about the TGI [5] of the same compound?
Its TGI is 4.7 µM.

Which TGI [1] does the source give for `CC1=C2C(=O)C(C)(C)C=C2C(=O)[C@](C)(O)C12CC2` here?
Its TGI is over 1 µM.

And the TGI [2]?
The TGI was over 1 µM.

What about the TGI [4] of the same compound?
Its TGI is over 1 µM.

For `CC(C)C/C=C/C=C/C(=O)N[C@@H](CC(N)=O)C(=O)N[C@@H]1C(=O)N[C@H](c2ccc(O)cc2)C(=O)N[C@H](CCCN)C(=O)N[C@H]([C@@H](C)O)C(=O)N[C@H](c2ccc(O)cc2)C(=O)N[C@H](c2ccc(O)cc2)C(=O)N[C@H]([C@H](C)O)C(=O)N[C@H](Cc2ccccc2)C(=O)N[C@H](CCCN)C(=O)N[C@H](c2ccc(O[C@H]3O[C@@H](CO)[C@@H](O)[C@@H](O)[C@H]3O[C@@H]3O[C@H](CO)[C@H](O)[C@H](O)[C@@H]3O)cc2)C(=O)N[C@H]([C@H](C)O)C(=O)N[C@H](c2ccc(O)cc2)C(=O)NCC(=O)N[C@H](CC(C)C)C(=O)N[C@H](C)C(=O)N[C@H](c2ccc(O)c(Cl)c2)C(=O)O[C@@H]1C(N)=O` (X17-N[X18][dHpg][dOrn][d(aThr)][dHpg][dHpg][dT][dF][dOrn][X19][dT][dHpg]G[dL][dA][X20]; ester 2-C), which GI50 [5] is on record?
The GI50 was 27.8 µM.

What about the TGI [5] of the same compound?
The TGI was 82.1 µM.

With `C#Cc1cccc(Nc2ncnc3ccc(-c4cnc(Cl)c(NS(C)(=O)=O)c4)cc23)c1` as the compound, how does the GI50 [5] read?
Its GI50 is 0.0815 µM.

What about the TGI [5] of the same compound?
The TGI was 0.754 µM.

`O=C1c2cccc3cc([N+](=O)[O-])cc(c23)C(=O)N1CCN1CCCC1` was tested. Which GI50 [5] did it give?
Its GI50 is 1.08 µM.

What about the TGI [5] of the same compound?
The TGI was 5.36 µM.

`CCOC(=O)C#Cc1ccc([N+](=O)[O-])cc1` was tested. Which TGI [5] did it give?
Its TGI is 21.8 µM.

And the TGI [6]?
Its TGI is 10.5 µM.

For `CC1(C)CCC2(C(=O)O)CC[C@]3(C)C(=CCC4C5(C)CC[C@H](OC6OC(C(=O)O)C(O)C(OC7OC(CO)C(O)C(O)C7O)C6OC6OC(CO)C(O)C(O)C6O)C(C)(C)C5CCC43C)C2C1` (stereo partly drawn), which GI50 [5] is on record?
Its GI50 is 97.4 µM.

And the TGI [5]?
Its TGI is over 100 µM.

Which results are given for `CCN(CC)CCOC(=O)/C(=C/c1ccc(OC)cc1)c1cc(OC)c(OC)c(OC)c1`?
TGI [1]: > 100 µM; TGI [2]: > 100 µM; TGI [3]: > 100 µM

With `CCC(O)(c1ccc(OC)cc1)C(c1ccc(OCc2ccccc2)cc1)c1ccc(OCc2ccccc2)cc1` (stereo not drawn) as the compound, how does the TGI [1] read?
Its TGI is over 100 µM.

And the TGI [3]?
The TGI was over 100 µM.

What about the TGI [4] of the same compound?
Its TGI is over 100 µM.

What does the source list for `Oc1cccc(Cn2c(-c3cccc(O)c3O)nc3ccccc32)c1O`?
GI50 [5]: 26.9 µM; TGI [5]: > 100 µM

How did the GI50 [5] turn out when `O=C1/C=C/[C@@H](O)[C@@H]2C[C@@H](O)C[C@H]2/C=C/CCC[C@H](CO)O1` was run?
Its GI50 is over 100 µM.

What about the TGI [5] of the same compound?
The TGI was over 100 µM.

For `C[C@@H](NC1CCC[C@@H]1O)c1ccccc1` (stereo partly drawn), which TGI [1] is on record?
Its TGI is over 100 µM.

And the TGI [2]?
The TGI was over 100 µM.

And the TGI [4]?
Its TGI is over 100 µM.

Which GI50 [5] does the source give for `Cc1cccc2c1NC(=O)[C@@]21[C@H](C(=O)c2ccccc2)[C@]2(C(=O)Nc3ccccc32)[C@H]2CCCN21` here?
Its GI50 is 19.5 µM.

And the TGI [5]?
Its TGI is over 100 µM.

What does the source list for `CC(C)(C)N1CC(OC(N)=O)C1`?
GI50 [5]: > 100 µM; TGI [5]: > 100 µM

How did the GI50 [5] turn out when `COc1cc2c(Nc3ccc(Br)cc3F)ncnc2cc1OCC1CCN(C)CC1` was run?
Its GI50 is 2.26 µM and 2.48 µM.

What about the TGI [5] of the same compound?
Its TGI is 8.6 µM and > 10 µM.

With `NCCCn1c2c(c3cc4c(cc3c1=O)OCO4)C(=O)c1ccccc1-2` as the compound, how does the GI50 [5] read?
The GI50 was 1.88 µM.

What about the TGI [5] of the same compound?
The TGI was 4.4 µM.

`C[C@@H](Oc1cc(NS(=O)(=O)N2CCC2)nc(SCc2cccc(F)c2F)n1)[C@@H](O)CO` was tested. Which GI50 [5] did it give?
Its GI50 is over 100 µM.

What about the TGI [5] of the same compound?
Its TGI is over 100 µM.
